From PubChem BioAssay (NCI)
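At the GI50, growth is halved. TGI marks complete inhibition of growth.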 Residues, ends and D or L forms follow the SMILES beside them. *: point of attachment. Cbz = O=C(OCc1ccccc1)*

Experiments:
Assay in all cases: growth of human tumour cells (NCI), 384-well format
IGROV1 ovarian = system: IGROV1 ovarian
T-47D breast = system: T-47D breast
NCI-H322M lung = system: NCI-H322M lung
MDA-MB-231 breast = system: MDA-MB-231 breast
MALME-3M melanoma = system: MALME-3M melanoma
HL-60(TB) leukemia = system: HL-60(TB) leukemia
NCI-H522 lung = system: NCI-H522 lung
HCC-2998 colon = system: HCC-2998 colon
RXF 393 renal = system: RXF 393 renal
U251 glioblastoma = system: U251 glioblastoma
786-0 renal = system: 786-0 renal
OVCAR-8 ovarian = system: OVCAR-8 ovarian
MDA-MB-435 melanoma = system: MDA-MB-435 melanoma

| SMILES | GI50 (IGROV1 ovarian) [nM] | TGI (IGROV1 ovarian) [nM] | GI50 (T-47D breast) [nM] | TGI (T-47D breast) [nM] | GI50 (NCI-H322M lung) [nM] | TGI (NCI-H322M lung) [nM] | GI50 (MDA-MB-231 breast) [nM] | TGI (MDA-MB-231 breast) [nM] | GI50 (MALME-3M melanoma) [nM] | TGI (MALME-3M melanoma) [nM] | GI50 (HL-60(TB) leukemia) [nM] | TGI (HL-60(TB) leukemia) [nM] | GI50 (NCI-H522 lung) [nM] | TGI (NCI-H522 lung) [nM] | GI50 (HCC-2998 colon) [nM] | TGI (HCC-2998 colon) [nM] | GI50 (RXF 393 renal) [nM] | TGI (RXF 393 renal) [nM] | GI50 (U251 glioblastoma) [nM] | TGI (U251 glioblastoma) [nM] | also measured |
| --- | --- | --- | --- | --- | --- | --- | --- | --- | --- | --- | --- | --- | --- | --- | --- | --- | --- | --- | --- | --- | --- |
| CC(C)C[C@@H](C=O)NC(=O)[C@H](CC(C)C)NC(=O)[C@H](CC(C)C)NC(=O)OCc1ccccc1 (Cbz-Leu-Leu-Leu-aldehyde) | 184 | 358 | 169 | 319 | 361 | 1290 | 177 | 326 | 155 | 291 | 171 | 311 | 85.8 | 225 | 179 | 327 | 149 | 283 | 211 | 407 | GI50 (786-0 renal): 180 nM; TGI (786-0 renal): 361 nM; GI50 (OVCAR-8 ovarian): 164 nM; TGI (OVCAR-8 ovarian): 313 nM; GI50 (MDA-MB-435 melanoma): 176 nM; TGI (MDA-MB-435 melanoma): 321 nM |
| Cc1[nH]nc2ncc(C(=O)N3CCC[C@H]3c3ccc(Cl)cc3)cc12 | 44700 | > 100000 | 68200 | > 100000 | > 100000 | > 100000 | > 100000 | > 100000 | > 100000 | > 100000 | 19700 | 34300 | 21300 | > 100000 | 32300 | > 100000 | 19700 | 46700 | 51700 | > 100000 | GI50 (786-0 renal): 52800 nM; TGI (786-0 renal): > 100000 nM; GI50 (OVCAR-8 ovarian): > 100000 nM; TGI (OVCAR-8 ovarian): > 100000 nM; GI50 (MDA-MB-435 melanoma): > 100000 nM; TGI (MDA-MB-435 melanoma): > 100000 nM |
